Key:
D(1A) dopamine receptor = D(1A) dopamine receptor (Homo sapiens, UniProt P21728); test: Antagonist activity at dopamine D1 receptor; format: functional
D(2) dopamine receptor = D(2) dopamine receptor (Homo sapiens, UniProt P14416); test: Antagonist activity at dopamine D2 receptor; format: functional
Sequence of D(2) dopamine receptor (P14416 whole entry): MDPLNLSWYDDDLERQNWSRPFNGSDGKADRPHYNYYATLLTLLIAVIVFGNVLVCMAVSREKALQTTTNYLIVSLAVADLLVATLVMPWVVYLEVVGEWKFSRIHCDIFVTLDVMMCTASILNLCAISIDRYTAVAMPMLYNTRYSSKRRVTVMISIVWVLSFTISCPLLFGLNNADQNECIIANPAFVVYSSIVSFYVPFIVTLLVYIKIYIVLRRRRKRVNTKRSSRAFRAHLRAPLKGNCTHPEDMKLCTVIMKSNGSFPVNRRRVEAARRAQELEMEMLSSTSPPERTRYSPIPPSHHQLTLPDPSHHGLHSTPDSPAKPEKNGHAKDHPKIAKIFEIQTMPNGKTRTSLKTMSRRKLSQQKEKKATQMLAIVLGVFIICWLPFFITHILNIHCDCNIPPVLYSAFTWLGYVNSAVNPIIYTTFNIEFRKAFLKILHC

Sequence of D(1A) dopamine receptor (P21728 whole entry): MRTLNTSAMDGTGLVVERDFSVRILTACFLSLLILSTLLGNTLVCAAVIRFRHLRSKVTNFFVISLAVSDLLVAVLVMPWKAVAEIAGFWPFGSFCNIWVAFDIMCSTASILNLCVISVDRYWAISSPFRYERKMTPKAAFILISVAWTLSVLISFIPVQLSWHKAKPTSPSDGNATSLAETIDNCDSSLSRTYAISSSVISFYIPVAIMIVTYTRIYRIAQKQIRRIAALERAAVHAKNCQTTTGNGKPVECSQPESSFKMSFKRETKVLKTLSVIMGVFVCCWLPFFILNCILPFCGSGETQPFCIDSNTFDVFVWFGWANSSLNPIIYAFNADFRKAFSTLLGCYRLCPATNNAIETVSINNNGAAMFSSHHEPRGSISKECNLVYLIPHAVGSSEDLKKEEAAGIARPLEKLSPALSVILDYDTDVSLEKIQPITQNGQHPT

Compound	EC50 (D(1A) dopamine receptor)	EC50 (D(2) dopamine receptor)
COc1cc2c(cc1O)CN1CCc3cc(OC)c(O)cc3[C@H]1C2	> 100 µM	14 µM
COc1cc2c(cc1O)CN1CCc3cc(OC)c(O)cc3[C@@H]1C2	0.0056 µM	56 µM

Source: ChEMBL document CHEMBL1949652, “First enantioselective syntheses of the dopamine D1 and D2 receptor modulators, (+)- and (-)-govadine” (Bioorg Med Chem Lett, 2012)
